Assay results from patent US9029355B2, “Solid ganaxolone compositions and methods for the making and use thereof” (Marinus Pharmaceuticals, priority 2005, dated 2015).

Assay: Solubility of ganaxolone using water soluble beta cyclodextrins
Type: physicochemical
Settings: water soluble beta cyclodextrins (beta-sulfobutyl-cyclodextrin, 2-hydroxypropylbetacyclodextrin)
From the text: Ganaxolone formulations suitable for intramuscular, subcutaneous, or intravenous injection may comprise physiologically acceptable sterile aqueous or non-aqueous solutions, dispersions, suspensions or emulsions, and sterile powders for reconstitution into sterile injectable solutions or dispersions. Examples of suitable aqueous and non-aqueous carriers, diluents, solvents, or vehicles including water, ethanol, polyols (propylene glycol, polyethylene-glycol, glycerol, cremophor and the like), suitable mixtures thereof, vegetable oils (such as olive oil) and injectable organic esters such as ethyl oleate. Additionally, Ganaxolone can be dissolved at concentrations of >1 mg/ml using water soluble beta cyclodextrins (e.g. beta-sulfobutyl-cyclodextrin and 2-hydroxypropylbetacyclodextrin. Proper fluidity can be maintained, for example, by the use of a coating such as lecithin, by the maintenance of the required particle size in the case of dispersions, and by the use of surfactants. Ganaxolone formulations suitable for subcutaneous injection may also contain additives such as preserving, wetting, emulsifying, and dispensing agents. Prevention of the growth of microorganisms can be ensured by various antibacterial and antifungal agents, such as parabens, benzoic acid, benzyl alcohol, chlorobutanol, phenol, sorbic acid, and the like. […]

CC(=O)[C@H]1CC[C@H]2[C@@H]3CC[C@H]4C[C@](C)(O)CC[C@]4(C)[C@H]3CC[C@]12C [Ganaxolone, 3α-hydroxy-3β-methyl-5α-pregnan-20-one]
concentration dissolved: > 1000 µg/mL
